According to patent US6342501B1, “Pyrrolo[2,3-d] pyrimidines as antiviral agents” (The Regents of the University of Michigan, priority 1994, dated 2002):
Like-named read-outs stand apart in the source and are kept apart here.

What was measured:
[1] = test system: herpes simplex virus type 1 (HSV-1); test: HSV-1 ELISA in BSC-1 cells; format: cell-based, KOS strain; settings: read-out: HSV-1
Protocol: (§1) The routine growth and passage of KB and BSC-1 cells was performed in monolayer cultures using minimal essential medium (MEM) with either Hanks salts [MEM(H)] or Earle salts [MEM(E)] supplemented with 10% calf serum. The sodium bicarbonate concentration was varied to meet the buffering capacity required. Cultures of diploid human foreskin fibroblast (HFF) or MRC-5 cells were grown in medium consisting of MEM(E) with 10% fetal bovine serum. Cells were passaged at 1:2 to 1:10 dilutions according to conventional procedures by using 0.05% trypsin plus 0.02% EDTA in a HEPES buffered salt solution (HBS) [Shipman, C., Jr., Proc. Soc. […] HFF and MRC-5 cells were passaged only at 1:2 dilutions. The Towne strain, plaque-purified isolate Po, of HCMV was kindly provided by Dr. Mark Stinski, University of Iowa. The KOS strain of HSV-1 was used in most experiments and was provided by Dr. Sandra K. Weller, University of Conn.
High titer HSV-1 stocks were prepared by infecting BSC cells at an m.o.i. of <0.1 as detailed previously [Turk, S. R., et al., Antimicrob.
Ninety-six-well cluster dishes were planted with 10,000 BSC-1 cells per well in 200 μL per well of MEM(E) plus 10% calf serum. After overnight incubation at 37° C., selected drug concentrations in quadruplicate and HSV-1 at a concentration of 100 p.f.u./well were added. Following a 3-day incubation at 37° C., medium was removed, plates were blocked, rinsed, and horse radish peroxidase conjugated rabbit anti-HSV-1 antibody was added. Following removal of the antibody containing solution, plates were rinsed, and then developed by adding 150 μL per well of a solution of tetramethylbenzidine as substrate. The reaction was stopped with H2SO4 and absorbance was read at 450 and 570 nm. Drug effects were calculated as a percentage of the reduction in absorbance in the presence of each drug concentration compared to absorbance obtained with virus in the absence of drug.
(§2) Dose-response relationships were constructed by linearly regressing the percent inhibition of parameters derived in the preceding sections against logarithm 10 drug concentrations. […] Samples containing positive controls (acyclovir for HSV-1 and ganciclovir for HCMV) were used in all assays.

[2] = test system: human cytomegalovirus (HCMV); test: microbe, parasite or virus in culture; format: cell-based, Towne strain; settings: for IC50: Human betaherpesvirus 5, HFF, read-out: HCMV; for antiviral activity against HCMV (in words): comment on Table 1 data
Protocol: as §1
Stock HCMV was prepared by infecting HFF cells at a multiplicity of infection (m.o.i.) of <0.01 plaque-forming units (p.f.u.) per cell. Cell growth medium was changed every four days until cytopathology was evident in all cells (approximately 21 days). Supernatant fluids were retained as the virus stock.
Virus titers were determined using monolayer cultures of HFF cells for HCMV and monolayer cultures of BSC-1 cells for HSV-1 as described earlier [Prichard, M. N., et al., J. Virol. […] Briefly, HFF or BSC-1 cells were planted as described above in 96-well cluster dishes and incubated overnight at 37. degree. C. in a humidified 3% C02 -97% air atmosphere. The next day cultures were inoculated with HCMV or HSV-1 and serially diluted 1:3 across the remaining eleven columns of the 96-well plate. Cultures were incubated at 37. degree. C. for 2 hr to permit virus adsorption and then virus inoculum was replaced with 0.2 ml of fresh medium. Cultures were incubated for seven days for HCMV, two or three days for HSV-1, the medium was removed, and the cell sheets were stained with 0.1% crystal violet in 20% methanol.
HFF cells in 24-well cluster dishes were infected with approximately 100 p.f.u. of HCMV per cm^2 cell sheet using the procedures detailed above. Following virus adsorption, compounds dissolved in growth medium were added to duplicate wells in four to eight selected concentrations. After incubation at 37° C. for 7 to 10 days, cell sheets were fixed, stained with crystal violet and microscopic plaques enumerated as described above.
After virus adsorption, inoculum was replaced with 0.2 mL of fresh medium containing test compounds. The first row of 12 wells was left undisturbed and served as virus controls. Each well in the second row received an additional 0.1 mL of medium with test compound at three times the desired final concentration. The contents of the 12 wells were mixed by repeated pipetting and then serially diluted 1:3 along the remaining wells. In this manner, six compounds could be tested in duplicate on a single plate with concentrations from […]. Plates were incubated at 37° C. for seven days, subjected to one cycle of freezing and thawing; aliquots from each of the eight wells of a given column were transferred to the first column of a fresh 96-well monolayer culture of HFF cells. Contents were mixed and serially diluted 1:3 across the remaining eleven columns of the secondary plate. Each column of the original primary plate was diluted across a separate plate in this manner. Cultures were incubated, plaques were enumerated, and titers calculated as described above.
as §2

[3] = test system: human foreskin fibroblasts (HFF cells); test: Cytotoxicity in stationary HFF cells (microscopic inspection of plaque assay cells); format: cell-based; settings: read-out: HFF
Protocol: (§3) Two different assays were used to explore cytotoxicity of selected compounds: (i) Cytotoxicity produced in stationary HFF cells was determined by microscopic inspection of cells used in plaque assays which were not affected by the virus [Turk, S. R., et al, Antimicrob.
as §2

[4] = test system: KB cells; test: Cytotoxicity: KB cell growth (crystal violet staining); format: cell-based; settings: Homo sapiens, read-out: KBgrv
Protocol: as §3
Briefly, 96-well cluster dishes were planted with KB cells at 3000-5000 cells per well. After overnight incubation at 37° C., test compound was added in quadruplicate at six to eight concentrations. Plates were incubated at 37° C for 48 hours in a CO2 incubator, rinsed, fixed with 95% ethanol, and stained with 0.1% crystal violet. Acidified ethanol was added and plates read at 570 nm in a spectrophotometer designed to read 96-well ELISA assay plates.
as §2

[5] = test system: HSV-1; settings: prior studies; mechanism other than inhibition of DNA synthesis, early in replication cycle; cited from earlier work
[6] = test system: HCMV; settings: prior studies; mechanism other than inhibition of DNA synthesis, early in replication cycle; cited from earlier work
[7] = Human alphaherpesvirus 1, BSC-1, 72 h
[8] = Human alphaherpesvirus 1, 72 h, Table 1, fifty-percent inhibitory concentration, ELISA, BSC-1 cells, 3-day incubation
[9] = Table 1, cytotoxicity, stationary HFF cells, visual
[10] = Table 1, cytotoxicity, KB cell growth, 48 hours

SMILES	melting point	IC50 [1, 7]	IC50 [2]	antiviral activity against HCMV (in words) [2]	IC50 ([3]; HFF)	IC50 ([4]; KB, 48 h)	IC50 [1, 8]	IC50 [3, 9]	IC50 [4, 10]	inhibition of HSV-1 viral replication (in words) [5]	inhibition of HCMV viral replication (in words) [6]
N#Cn1c(Br)c(CCc2ccc(Cl)cc2)c2ncnc(N)c21 [Compound 6f, 4-Amino-6-Bromo-5-cyano-7-(4-chlorophenethyl)pyrrolo[2,3]pyrimidine]	280 °C (dec.)										
CC(c1ccccc1)n1cc(C(N)=O)c2c(N)ncnc21 (centres unmarked) [Compound 1428, 4-amino-7-((2-phenyl)-eth-2-yl)-pyrrolo[2,3-d]pyrimidine-5-carboxamide]		50 µM	38 µM	good to excellent antiviral activity	45 µM	20 µM					
N#Cc1cn(Cc2ccc(F)cc2)c2ncnc(N)c12 [Compound 1429, 4-amino-7-(4-fluorobenzyl)-pyrrolo[2,3-d]pyrimidine-5-carbonitrile]			1.8 µM	good to excellent antiviral activity			33 µM	> 100 µM	60 µM		
Cc1ccc(Cn2c(Br)c(C#N)c3c(=O)[nH]cnc32)cc1 [Compound 1441, 4-oxo-6-bromo-7-(4-methylbenzyl)-pyrrolo[2,3-d]pyrimidine-5-carbonitrile]			21 µM				90 µM	100 µM	16 µM		
NC(=O)c1c(Br)n(Cc2ccc(Cl)cc2)c2ncnc(N)c12 [Compound 1443, 4-amino-6-bromo-7-(4-chlorobenzyl)-pyrrolo[2,3-d]pyrimidine-5-carboxamide]		> 100 µM	> 10 µM		> 10 µM	> 100 µM					
N#Cc1cn(Cc2ccc(Cl)cc2)c2ncnc(N)c12 [Compound 1444, 4-amino-7-(4-chlorobenzyl)-pyrrolo[2,3-d]pyrimidine-5-carbonitrile]			0.8 µM	good to excellent antiviral activity			85 µM	> 10 µM	> 100 µM		
NC(=S)c1cn(CCc2ccccc2)c2ncnc(N)c12 [Compound 1446, 4-amino-7-(2-phenyl)ethyl-pyrrolo[2,3-d]pyrimidine-5-thiocarboxamide]			> 1 µM	excellent activity			0.65 µM	100 µM	10 µM		
N#Cc1c(N)n(Cc2cccc(N)c2)c2ncnc(N)c12 [Compound 1455, 4,6-diamino-7-(3-aminobenzyl)-pyrrolo[2,3-d]pyrimidine-5-carbonitrile]			6.5 µM	Some activity			> 100 µM	> 100 µM	40 µM		
N#Cc1c(Br)n(Cc2cccc(Cl)c2)c2ncnc(N)c12 [Compound 1461, 4-amino-6-bromo-7-(3-chlorobenzyl)-pyrrolo[2,3-d]pyrimidine-5-carbonitrile]			> 100 µM				> 100 µM	> 100 µM	> 100 µM		
N#Cc1c(Br)n(Cc2ccc(Cl)c(Cl)c2)c2ncnc(N)c12 [Compound 1462, 4-amino-6-bromo-7-(3,4-dichlorobenzyl)-pyrrolo[2,3-d]pyrimidine-5-carbonitrile]			> 100 µM				> 100 µM	> 100 µM	> 100 µM		
COCCOCn1cc(C(N)=S)c2c(N)ncnc21 [compound 5b, 4-amino-7-[(2-methoxyethoxy)methyl]pyrrolo[2,3-d]pyrimidine-5-thiocarboxamide]										inhibited	inhibited
